Experimental data taken from patent US20130143969A1 (THE OHIO STATE UNIVERSITY, priority 2010, published 2013).

Assays:
in vivo = conditions: for AUC as % curcumin (relative percentage): oral 1.8 g/kg curcumin gel; for AUC: oral 1.8 g/kg curcumin gel in 66.7% PEG 600 + 33.3% Cremophor EL; for concentration at 10 min / concentration at 20 min / concentration at 30 min / concentration at 45 min / concentration at 60 min / concentration at 90 min / concentration at 120 min / concentration at 240 min / concentration at 480 min: CD2F1, mouse, in vivo
Excerpt: Extracts of bio-matrices were subjected to HPLC mass spectrometric analysis.

MV4-11 cells = assay: Cell cycle distribution by flow cytometry; format: cell-based; conditions: 2.5 μM decitabine
Description: (§1) Cell Cycle and Apoptosis Analysis: MV4-11, ML-1, HL-60 and K562 leukemia cell lines were cultured in RPMI medium (VWR International, Inc., West Chester, Pa.) supplemented with 10% fetal bovine serum (Invitrogen, Carlsbad, Calif.) and 1% (v/v) penicillin/streptomycin (Invitrogen Life Technologies; Carlsbad, Calif.) antibiotic solution at 37° C. in an incubator under 5% CO2 atmosphere. For the ex-vivo studies, mononuclear cells obtained from bone marrow (BM) of patient with AML were prepared by Ficoll-Hypaque (Nygaard) gradient centrifugation and cultured with serum-free expansion medium (SFEM) (StemCell technologies, Vancouver, BC) supplemented with GM-CSF (50 ng/ml), IL-3 (20 ng/ml), IL-6 (20 ng/ml) and SCF ([…]). […] The cell cycle and apoptosis of MV4-11 cells was analyzed on a BD FACS Calibur (Beckman Coulter, Fullerton, Calif.) according to the standard protocol provided by the manufacturer.

p15^INK4B = assay: Quantitative RT-PCR of p15INK4B mRNA in leukemia cells; format: cell-based; conditions: MV4-11 cells, decitabine 2.5 μM, 72 hours
Description: as §1
Quantitative RT-PCR was used to quantify the mRNA levels of DNMT1, DNMT3a, DNMT3b, p15INK4B and p21. Total RNA was extracted with Trizol reagent (Invitrogen, Carlsbad, Calif.) and reverse transcribed by reverse transcriptase (Invitrogen). Quantitative real-time PCR reactions were performed in triplicate using Taqman gene expression assay (Applied Biosystems) with an ABI prism 7700 detector (Applied Biosystems). The target gene values were normalized to the values of internal control GAPDH or 18 S, and expressed as relative percent change (100×2^(˜ΔΔCt)) over non-treated samples.

[1] = tested on: p15^INK4B promoter region; assay: DNA methylation analysis of the p15INK4B promoter region (LC-MS/MS); format: cell-based; conditions: MV4-11 cells, decitabine 2.5 μM, 72 hours
Description: Genomic DNA isolated from MV4-11 cells was treated with bisulfite using the Epi methylation Kit (Qiagen, Minneapolis, Minn.) according to the instruction from the manufacturer and followed by PCR amplification as follows. The sequences of p15^INK4B primers were: forward 5′-GGGAGGGTAATGAAGTTGAGTTTA-3′ (SEQ ID NO. 1), and reverse 5′-ACCCTAAAACCCCAACTACCTAAAT-3′ (SEQ ID NO. 2). PCR amplifications were performed as follows: 95° C. for 5.5 min, 55° C. for 30s for 5 cycles, and 52° C. for 30 s for 38 cycles, 72° C. for 30s for 38 cycles, with a final step at 72° C. for 1 min. PCRs were carried out in a 100 μl volume containing 10 μl of buffer (10×), 2 μL of each primer (10 μM), 2 μL of (10 mM) dNTPs, 2 U of Platinum Taq DNA polymerase (Invitrogen, Carlsbad, Calif.), 70.6 μL ddH2O and 10 μL of bisulfite treated DNA in a GeneAmp 9700 thermal cycler (Perkin-Elmer, Norwalk, Conn.). PCR products were purified using QIAquick columns and eluted in water. A 500 ng aliquot of the PCR product was incubated with 25 UM. […] Fully methylated PCR products were purified using the QIAquick PCR Purification kit (Qiagen, Minneapolis, Minn.), according to the manufacturer's instructions and 200 ng of the purified DNA was hydrolyzed and the concentrations of 5mdC and 2dC in the hydrolysate were measured by LC-MS/MS using the conditions as described previously.

[2] = mouse, oral 1.8 g/kg curcumin in 66.7% PEG 600 + 33.3% Cremophor EL, 1440 min

With `COc1cc(CCC(=O)CC(=O)CCc2ccc(O)c(OC)c2)ccc1O` [THC, tetrahydrocurcumin] the “AUC as % curcumin (relative percentage)” value (in vivo; mouse) was 7.9%, the AUC (in vivo; mouse) was 38.29 µM·min and the plasma level (in vivo; [2]) was 2.239 ng/mL. For the same compound, the plasma level (in vivo; same dosing, 10 min) was 112.6977 ng/mL, the plasma level (in vivo; same dosing, 20 min) was 238.2446 ng/mL and the plasma level (in vivo; same dosing, 30 min) was 219.0996 ng/mL. It also gave a plasma level (in vivo; same dosing, 45 min) of 62.5 ng/mL, a plasma level (in vivo; same dosing, 60 min) of 39.23 ng/mL and a plasma level (in vivo; same dosing, 90 min) of 6.038 ng/mL. It also gave a plasma level (in vivo; same dosing, 120 min) of 8.631 ng/mL, a plasma level (in vivo; same dosing, 240 min) of 8.173 ng/mL and a plasma level (in vivo; same dosing, 480 min) of 4.672 ng/mL.
For `COc1cc(/C=C/C(=O)CC(=O)/C=C/c2ccc(O[C@@H]3O[C@H](C(=O)O)[C@@H](O)[C@H](O)[C@H]3O)c(OC)c2)ccc1O` [GLU, curcumin O-monoglucuronide], the “AUC as % curcumin (relative percentage)” value (in vivo; mouse) was 382.0%, the AUC (in vivo; mouse) was 1863.2 µM·min and the plasma level (in vivo; [2]) was 24.2129 ng/mL. It also gave a plasma level (in vivo; same dosing, 10 min) of 3083.366 ng/mL, a plasma level (in vivo; same dosing, 20 min) of 4428.71 ng/mL and a plasma level (in vivo; same dosing, 30 min) of 5469.386 ng/mL. It also gave a plasma level (in vivo; same dosing, 45 min) of 2539.161 ng/mL, a plasma level (in vivo; same dosing, 60 min) of 2057.704 ng/mL and a plasma level (in vivo; same dosing, 90 min) of 1336.072 ng/mL. It also gave a plasma level (in vivo; same dosing, 120 min) of 1070.25 ng/mL and a plasma level (in vivo; same dosing, 480 min) of 716.5084 ng/mL.
In the case of `O=C(/C=C/c1ccc(O)cc1)CC(=O)/C=C/c1ccc(O)cc1` [BDMO, bisdesmethoxycurcumin], the concentration at 10 min (in vivo) is reported as 65.7 ng/mL, the concentration at 20 min (in vivo) is reported as 115 ng/mL and the concentration at 30 min (in vivo) is reported as 51.4 ng/mL. It also gave a concentration at 45 min (in vivo) of 66.9 ng/mL, a concentration at 60 min (in vivo) of 37.3 ng/mL and a concentration at 90 min (in vivo) of 11.1 ng/mL. For the same compound, the concentration at 120 min (in vivo) was 15.4 ng/mL, the concentration at 240 min (in vivo) was 34.5 ng/mL and the concentration at 480 min (in vivo) was 10.9 ng/mL.
For curcumin O-sulfate, the “AUC as % curcumin (relative percentage)” value (in vivo; mouse) was 3.3%, the AUC (in vivo; mouse) was 16.2 µM·min and the plasma level (in vivo; [2]) was 0 ng/mL. The plasma level (in vivo; same dosing, 10 min) was 29.44 ng/mL, the plasma level (in vivo; same dosing, 20 min) was 54.83 ng/mL and the plasma level (in vivo; same dosing, 30 min) was 43.06 ng/mL. It also gave a plasma level (in vivo; same dosing, 45 min) of 27.51 ng/mL, a plasma level (in vivo; same dosing, 60 min) of 18.75 ng/mL and a plasma level (in vivo; same dosing, 90 min) of 8.637 ng/mL. It also gave a plasma level (in vivo; same dosing, 120 min) of 7.752 ng/mL, a plasma level (in vivo; same dosing, 240 min) of 9.949 ng/mL and a plasma level (in vivo; same dosing, 480 min) of 4.05 ng/mL.
With `Nc1ncn([C@H]2C[C@H](O)[C@@H](CO)O2)c(=O)n1` [decitabine, Decitabine] the “cell population in G0/G1 phase” value (MV4-11 cells) was 49.4%, the “cell population in G2/M phase” value (MV4-11 cells) was 11.7% and the “cell population in S phase” value (MV4-11 cells) was 26.2%. For the same compound, the “cell population in SubG1 phase” value (MV4-11 cells) was 13.2%, the “increase of p15INK4B expression level” value (p15^INK4B) was about 4 fold and the “decrease of p15INK4B promoter methylation level” value [1] was about 25%.
Work on `COc1cc(/C=C/C(O)=C/C(=O)/C=C/c2ccc(O)cc2)ccc1O` [DMO, desmethoxycurcumin] yielded a concentration at 10 min (in vivo) of 148 ng/mL, a concentration at 20 min (in vivo) of 224 ng/mL and a concentration at 30 min (in vivo) of 108 ng/mL. For the same compound, the concentration at 45 min (in vivo) was 118 ng/mL, the concentration at 60 min (in vivo) was 76.5 ng/mL and the concentration at 90 min (in vivo) was 29.1 ng/mL. The concentration at 120 min (in vivo) was 39.5 ng/mL, the concentration at 240 min (in vivo) was 40.4 ng/mL and the concentration at 480 min (in vivo) was 15.4 ng/mL.
